In paper PMC11067034 (Proceedings of the National Academy of Sciences of the …, 2024):

Molecular target: T1, human CTF18-RFC (ATPγS sites in CTF18/A, RFC2/B, RFC5/C, RFC4/D) (Homo sapiens, UniProt P35249+P35250+P40937+Q8WVB6)
T1 construct: gene CHTF18; heptameric CTF18-RFC2-5-DCC1-CTF8 from baculovirus/insect cells, intact complex; DCC1 and CTF8 invisible in maps; mixed with human PCNA (from E. coli BL21) and two-tailed DNA; with Replication factor C subunit 3; Sister chromatid cohesion protein DCC1; Chromosome transmission fidelity protein 8 homolog; Proliferating cell nuclear antigen
Experiment: cryo-EM structure
Type: binding
Settings: Mg2+-coordinated; ATPase sites of CTF18, RFC2, RFC5 and RFC4 (arginine fingers from adjacent subunits); 0.5 mM ATPγS, PCNA and DNA, 1 mM Mg acetate, pH 7.5, room temperature

With Nc1ncnc2c1ncn2[C@@H]1O[C@H](COP(=O)(O)OP(=O)(O)OP(O)(O)=S)[C@@H](O)[C@H]1O [ATPγS] the cryo-EM structure was “We identified four ATPγS molecules in the AAA+ nucleotide binding pockets of subunits CTF18/A, RFC2/B, RFC5/C”.
